Measurements as given in PubChem BioAssay AID1191 (EPA DSSTox, 2008).
Active and inactive are the calls of the source.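 The calls were made as follows: active = at least one hamster carcinogenic potency value with a tumor site listed for any sex group; inactive = no potency or tumor site yet a negative hamster study.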

System: hamster chronic carcinogenicity bioassay, TD50
Test: DSSTox (CPDBAS) Carcinogenic Potency Database Summary Hamster Bioassay Results
Source text: The Carcinogenic Potency Database (CPDB) is a unique and widely used international resource of the results of over 6500 chronic, long-term animal cancer tests on over 1500 chemical substances. The CPDB provides easy access to the bioassay literature, with qualitative and quantitative analyses of both positive and negative experiments that have been published over the past 50 years in the general literature and by the National Cancer Institute/National Toxicology Program. The CPDB standardizes the diverse literature of cancer bioassays that vary widely in protocol, histopathological examination and nomenclature, and in the published author's choices of what information to provide in their papers. Results are reported in the CPDB for tests in rats, mice, hamsters, dogs, and nonhuman primates, and are based on the most positive result among all experiments for each sex-species. The DSSTox CPDBAS (all species) file incorporates data from the CPDB Summary Tables for the full list of over 1500 chemical substances tested in at least one species. Summary bioassay results for Hamster (TD50, tumor sites, male, female, both sexes) are provided in the CPDB Summary Tables and the DSSTox CPDBAS file for over 80 chemical substances.
TD50 is a standardized quantitative measure of carcinogenic potency (analogous to an LD50) and is reported in the CPDB Summary Table for each species. Activity Score for actives is computed by mapping of LOG10 (1/TD50_Hamster_mmol) activity values spanning range [MIN, MAX] onto Integer 1-100 Activity Score range, where 100 is highest potency and 1 is lowest: Activity Score = 100 * INTEGER[(log10(1/Activity) - MIN)/(MAX - MIN)]. If activity is reported but no TD50_Hamster_mmol value is computed, such as for a mixture, the Activity Score is assigned the activity value "50". […] Target sites are reported for each sex-species group with a positive result in the CPDB on the basis of a positive author's opinion for the particular site, using all results from both the general literature and NCI/NTP bioassays. If a chemical has two or more target sites listed, the results may be from different experiments, and a single site may be a target organ in more than one experiment, as well. Blank entry in TargetSites field indicates no results reported.

Compound `C=CCl` has a Potency of 39.4 mg/kg/day.
For `O=NO`, the outcome was “inactive; no positive results”.
In the case of `O=S(=O)(O)O`, the Potency is reported as 118 mg/kg/day.
In the case of `C[C@@H]1O[C@@H](OC[C@H]2O[C@@H](Oc3c(-c4ccc(O)c(O)c4)oc4cc(O)cc(O)c4c3=O)[C@H](O)[C@@H](O)[C@@H]2O)[C@H](O)[C@H](O)[C@H]1O`, the outcome is reported as “inactive; no positive results”.
`C=CCN(CC=C)N=O` showed a Potency of 1.54 mg/kg/day.
`CC1CN(N=O)C(=O)O1` (stereo not given) showed a Potency of 0.172 mg/kg/day.
In the case of `N=C1C=CC(=C(c2ccc(N)cc2)c2ccc(N)cc2)C=C1`, the outcome is reported as “inactive; no positive results”.
`CC(=O)CN(N=O)C(N)=O` was tested, and the Potency was 0.13 mg/kg/day.
With `F[B-](F)(F)F` the outcome was “inactive; no positive results”.
`S=C=NCCc1ccccc1` was tested, and the outcome was “inactive”.
For `NC(=O)/C(=C\c1ccc([N+](=O)[O-])o1)c1ccco1`, the Potency was 164 mg/kg/day.
`N#[N+]c1ccccc1` was tested, and the outcome was “inactive; no positive results”.
`O=NN1CCC1` showed a Potency of 7.14 mg/kg/day.
Compound `[O-][Br+2]([O-])O` has a Potency of 533 mg/kg/day.
`C=C(C)C(=O)OC` was tested, and the outcome was “inactive; no positive results”.
For `CC(C)(OCc1ccc(-c2ccc(Cl)cc2)cc1)C(=O)O`, the outcome was “inactive; no positive results”.
In the case of `O=[N+]([O-])c1ccc2c3c(cccc13)CC2`, the outcome is reported as “inactive”.
With `ClC1=C(Cl)[C@]2(Cl)[C@@H]3[C@@H]4C[C@@H]([C@H]5O[C@@H]45)[C@@H]3[C@@]1(Cl)C2(Cl)Cl` the outcome was “inactive; no positive results”.
For `CC1CN(N=O)CC(C)O1` (stereo not given), the Potency was 2 mg/kg/day.
For `CCOC(=O)N(C)N=O`, the Potency was 0.127 mg/kg/day.
With `OCC1CO1` (stereo not given) the Potency was 56.1 mg/kg/day.
With `CNN` the Potency was 11.5 mg/kg/day.
Work on `O=CNNc1nc(-c2ccc([N+](=O)[O-])o2)cs1` yielded a Potency of 16.6 mg/kg/day.
With `NNC(=O)c1ccncc1` the outcome was “inactive; no positive results”.
`Clc1ccc(C(c2ccc(Cl)cc2)C(Cl)(Cl)Cl)cc1` was tested, and the outcome was “inactive; no positive results”.
Compound `NN` has a Potency of 4.16 mg/kg/day.
For `CN(C)CCN(Cc1cccs1)c1ccccn1`, the outcome was “inactive; no positive results”.
For `CN(C)N`, the Potency was 124 mg/kg/day.
For `O=c1c(O)c(-c2ccc(O)c(O)c2)oc2cc(O)cc(O)c12`, the outcome was “inactive; no positive results”.
In the case of `C=O`, the outcome is reported as “inactive; no positive results”.
With `NC(=O)N(CCc1ccccc1)N=O` the Potency was 0.964 mg/kg/day.
`CCN(N=O)C(=O)NCC(C)=O` showed a Potency of 0.443 mg/kg/day.
`CC(C)(Oc1ccc(C2CCCc3ccccc32)cc1)C(=O)O` (stereo not given) was tested, and the outcome was “inactive; no positive results”.
With `COc1ccc(O)c(C(C)(C)C)c1` the outcome was “inactive; no positive results”.
`Cc1cccc(Nc2cc(Cl)nc(SCC(=O)O)n2)c1C` was tested, and the outcome was “inactive; no positive results”.
For `CC1=CC(=C(c2ccc(N)cc2)c2ccc(N)cc2)C=CC1=N`, the outcome was “inactive; no positive results”.
With `CC(C)OC(=O)Nc1cccc(Cl)c1` the outcome was “inactive; no positive results”.
`CNNC` showed a Potency of 0.179 mg/kg/day.
For `C=CC(=C)Cl`, the outcome was “inactive; no positive results”.
For `ClC=C(Cl)Cl`, the outcome was “inactive; no positive results”.
In the case of `O=C(O)c1ccncc1`, the outcome is reported as “inactive; no positive results”.
Compound `O=NN1CCCC1` has a Potency of 14.2 mg/kg/day.
In the case of `COCCl`, the Potency is reported as 16.4 mg/kg/day.
In the case of `CC=O`, the Potency is reported as 565 mg/kg/day.
In the case of `c1ccc(Nc2ccc3ccccc3c2)cc1`, the outcome is reported as “inactive; no positive results”.
With `CCO` the outcome was “inactive; no positive results”.
`CC(=O)Nc1nc(-c2ccc([N+](=O)[O-])o2)cs1` was tested, and the Potency was 8.91 mg/kg/day.
In the case of `O=C(O)c1ccc(O)c(O)c1`, the outcome is reported as “inactive”.
For `O=S(=O)([O-])[O-].[Cd+2]`, the outcome was “inactive; no positive results”.
In the case of `CCN(N=O)C(=O)NCCO`, the Potency is reported as 1.04 mg/kg/day.
For `CC1CN(N=O)CC(C)N1C` (stereo not given), the Potency was 1.32 mg/kg/day.
In the case of `O=C(C1CCCCC1)N1CC(=O)N2CCc3ccccc3C2C1` (stereo not given), the outcome is reported as “inactive; no positive results”.
For `O=NN1CCCC1c1cccnc1` (stereo not given), the Potency was 10.8 mg/kg/day.
For `O=NN1CCOCC1`, the Potency was 3.57 mg/kg/day.
For `Clc1c(Cl)c(Cl)c(Cl)c(Cl)c1Cl`, the Potency was 4.96 mg/kg/day.
For `ClC(Cl)=C(c1ccc(Cl)cc1)c1ccc(Cl)cc1`, the Potency was 202 mg/kg/day.
With `CN(C)C(=O)Cl` the Potency was 0.625 mg/kg/day.
With `O=NN1CCOC1` the Potency was 0.798 mg/kg/day.
`CC1CN(N=O)CC(C)N1N=O` (stereo not given) gave a Potency of 3.1 mg/kg/day.
With `NNCCO` the outcome was “inactive; no positive results”.
`CC(O)CN(CC(O)CO)N=O` (stereo not given) gave a Potency of 1.59 mg/kg/day.
`CC(=O)CN(N=O)C(=O)NCCCl` showed a Potency of 0.338 mg/kg/day.
In the case of `CC(=O)N(O)c1ccc2c(c1)Cc1ccccc1-2`, the Potency is reported as 2.1 mg/kg/day.
Work on `CN(C)CCN(C)N=O` yielded a Potency of 3.83 mg/kg/day.
With `O=NN1CCCC1c1ccc[n+]([O-])c1` (stereo not given) the outcome was “inactive; no positive results”.
In the case of `COC1=CC(=O)C[C@@H](C)[C@]12Oc1c(Cl)c(OC)cc(OC)c1C2=O`, the outcome is reported as “inactive; no positive results”.
In the case of `CN(N)C=O`, the Potency is reported as 5.8 mg/kg/day.
In the case of `CN(CCCC(=O)c1cccnc1)N=O`, the outcome is reported as “inactive”.
`O=NN1CCCCC1` was tested, and the Potency was 83.3 mg/kg/day.
With `CC(=O)CN(CC(O)CO)N=O` (stereo not given) the Potency was 0.754 mg/kg/day.
`C=CCN(CC(C)=O)N=O` was tested, and the Potency was 1.19 mg/kg/day.
Work on `CC(=O)Nc1ccc2c(c1)Cc1ccccc1-2` yielded a Potency of 17.4 mg/kg/day.
For `Nc1ncn[nH]1`, the outcome was “inactive; no positive results”.
With `CN(CC(O)CO)N=O` (stereo not given) the Potency was 0.94 mg/kg/day.
`O=CNc1nc(-c2ccc([N+](=O)[O-])o2)cs1` showed a Potency of 9.77 mg/kg/day.
Work on `CCOC(N)=O` yielded a Potency of 65.2 mg/kg/day.
In the case of `O=Cc1ccco1`, the outcome is reported as “inactive; no positive results”.
With `CC(C)OC(=O)Nc1ccccc1` the outcome was “inactive; no positive results”.
In the case of `O=NN(CCO)CC(O)CO` (stereo not given), the outcome is reported as “inactive”.
`CC(=O)CN(CCO)N=O` was tested, and the Potency was 0.997 mg/kg/day.
In the case of `CCC1(c2ccccc2)C(=O)NC(=O)NC1=O`, the outcome is reported as “inactive; no positive results”.
In the case of `CN(Cc1cnc2nc(N)nc(N)c2n1)c1ccc(C(=O)N[C@@H](CCC(=O)O)C(=O)O)cc1`, the outcome is reported as “inactive; no positive results”.
For `O=c1ccc2ccccc2o1`, the outcome was “inactive; no positive results”.
With `[Cd+2].[Cl-].[Cl-]` the outcome was “inactive; no positive results”.
Work on `Cc1cc(=O)[nH]c(=S)[nH]1` yielded a Potency of 53.4 mg/kg/day.
